Values joined by “and” are separate entries in the source; they are usually repeats but may differ in a detail not shown here. Identical values can stand only once.
Assays:
plasma protein = test: Plasma protein binding of CTP-543 at 2 hours post-dose (renal impairment study); format: in vitro ADME, human; settings: moderate renal impairment vs matched controls with normal renal function
Description: All subjects had samples collected for PK.

[1] = system: adult subjects with moderate to severe AA; test: Phase III trial: Clinical Global Impression of Severity (CGI-S); format: in vivo, human
Procedure: The CGI-S was assessed by the investigator and considered the severity of the subject's alopecia at the time of assessment. The investigator selected 1 of 7 numeric choices representing “Among the most extreme hair loss” to “Normal, no hair loss.” To reduce variability, 1 rater was to perform the CGI-S assessment for the subject. The definitions of the numeric choices is as follows: 1=normal, no hair loss; 2=borderline hair loss; 3=mild hair loss; 4=moderately hair loss; 5=marked hair loss; 6=severe hair loss; 7=among the most extreme hair loss.
A Phase III trial was conducted to assess the efficacy and safety of CTP-543 in adult subjects with moderate to severe AA. Approximately 440 adult male and female subjects 18 to 65 years of age, inclusive, with moderate to severe AA participated in the study. Subjects with definitive diagnosis of AA, and at least 50% hair loss, as defined by a SALT score ≥50, who met all of the inclusion criteria and none of the exclusion criteria participated in the study.
The Screening Period lasted up to 28 days prior to initiation of study drug. […] Randomization was stratified by scalp hair loss into 1 of the following 2 categories: 1) partial scalp hair loss (SALT ≥50 and <95), 2) complete or near complete scalp hair loss (SALT ≥95).
Additional secondary efficacy endpoints included the following: • Relative change in SALT scores from baseline at Weeks 4, 8, 12, 16, 20, and 24. • Percentage of responders (defined as “much improved” or “very much improved”) using the Clinical Global Impression of Improvement (CGI-I) at Weeks 12, 16, 20, and 24. • Percentage of responders (defined as “much improved” or “very much improved”) using the Patient Global Impression of Improvement (PGI-I) at Weeks 12, 16, 20, and 24. • Change from baseline in the Clinical Global Impression of Severity (CGI-S) at Weeks 12, 16, 20, and 24. • Change from baseline in the Patient Global Impression of Severity (PGI-S) at Weeks 12, 16, 20, and 24. • Change from baseline on the Brigham Eyebrow Tool for Alopecia (BETA) score at Weeks 12 and 24. • Change from baseline on the Brigham Eyelash Tool for Alopecia (BELA) score at Weeks 12 and 24. • Percentage of subjects achieving at least a 75% relative reduction in SALT score from baseline at Weeks 12 and 24. • Percentage of subjects achieving at least a 90% relative reduction in SALT score from baseline at Weeks 12 and 24. • Percentage of responders (defined as “satisfied” or “very satisfied”) on the SPRO scale at Weeks 12, 16, and 20. • Change from baseline in the SPRO scale at Weeks 12, 16, 20, and 24. • Percentage of subjects achieving a ≥2-point change from baseline in the SPRO scale at Weeks 12, 16, 20, and 24. • Change from baseline on the individual items of the Hair Quality Patient Reported Outcome (QPRO) scale at Weeks 12, 16, 20, and 24. • Change from baseline in the depression scale of the Hospital Anxiety and Depression Scale (HADS) at Week 24. • Change from baseline in the anxiety scale of the HADS at Week 24. • Percentage of subjects achieving an absolute SALT score of ≤20 at Week 4. • Percentage of subjects achieving an absolute SALT score of ≤10 at Week 24
A decrease in CGI-I score indicates improvement (impression is decreased severity). Similar to other endpoints, decreases favoring the active group over placebo were observed beginning at Week 12 and continuing through Week 24, and the magnitude of the differences increased at each subsequent time point. […] Detailed data for each time point are described below.

subjects with AA = test: Open-label extension (OLE) studies: SALT score over time; format: in vivo, human; settings: for percentage of subjects with a SALT score of ≤20: out to Week 52, pooled interim analysis
Procedure: The SALT score is calculated for a patient/subject by measuring the percentage of hair loss in each of the 4 areas of the scalp and adding the total to achieve a composite score (referred to herein as an absolute SALT score). Hair regrowth is reflected by a decrease in the SALT score. For example, no hair on the scalp would have a SALT score of 100 (i.e., an absolute SALT score) while complete hair regrowth would be a SALT score of 0 (i.e., an absolute SALT score).
Subjects completing 24 weeks of treatment with […] 8 mg twice daily in the Phase III trial were eligible to continue treatment in an open label extension trial. Following 52 additional weeks of treatment with […]™ 8 mg twice daily clinical response rates continued to increase with approximately 74% of the 80 subjects on 8 mg twice daily for 76 weeks achieving SALT ≤20.
The qualifying clinical trials including the following: 1. NCT03137381; 2. NCT03811912; 3. NCT03941548; 4. NCT04784533; 5. NCT04518995; and 6. NCT04797650 (all available a at https://clinicaltrials.gov).
The OLE Efficacy Population is defined as all subjects who received at least one dose of deuruxolitinib and had at least one post-baseline SALT assessment in OLE. The data analyses include subjects' data from the qualifying trial. Missing SALT scores were not imputed. The number of subjects decreases over time due to missing data, patient discontinuations, or subjects not yet at the later timepoints. Any SALT data after a qualifying dose change in the OLE was censored for all figures included here, except those showing the overall treatment sequence. A “qualifying dose change” referred to herein can be placebo in any qualifying trial to any dose of deuruxolitinib in the OLE (includes subjects who switched doses), or any dose of deuruxolitinib in a qualifying trial to any dose of deuruxolitinib in the OLE. Various analyses using SALT scores were conducted to best estimate the overall long-term effect of deuruxolitinib considering the issues with dose changes and decreasing patient numbers over time. “Any Dose” analysis tracks all active subjects over time pooled across the two doses. “As Observed” analysis censors subjects at the time of dose adjustment or study discontinuation. “LOCF” (last observation carried forward) analysis utilizes the last SALT score before dose change and carries it forward for all other timepoints up to 52 weeks.

With [2H]C1([2H])C([C@@H](CC#N)n2cc(-c3ncnc4[nH]ccc34)cn2)C([2H])([2H])C([2H])([2H])C1([2H])[2H] [CTP-543, (R)-3-(4-(7H-pyrrolo[2,3-d]pyrimidin-4-yl)-1H-pyrazol-1-yl)-3-(cyclopentyl-2,2,3,3,4,4,5,5-d8) propanenitrile] the “differences in plasma protein binding between cohorts” value (plasma protein) was “no meaningful differences”, the “CGI-S, LS mean change from baseline” value ([1]; Week 12, 8 mg BID) was −1.3 and the “CGI-S, LS mean change from baseline” value ([1]; Week 12, 12 mg BID) was −1.4. For the same molecule, the “CGI-S, LS mean change from baseline” value ([1]; Week 16, 12 mg BID) was −1.8, the “CGI-S, LS mean change from baseline” value ([1]; Week 20, 8 mg BID) was −1.8 and the “CGI-S, LS mean change from baseline” value ([1]; Week 20, 12 mg BID) was −2.1. The “CGI-S, LS mean change from baseline” value ([1]; Week 24, 8 mg BID) was −2.1, the “CGI-S, LS mean change from baseline” value ([1]; Week 24, 12 mg BID) was −2.4 and the “pooled mean SALT score” value (subjects with AA; 8 mg BID in OLE, placebo in the earlier studies) was 30.4. The “OLE responders who maintained treatment response in the OLE” value (subjects with AA; 8 mg BID in the OLE without a qualifying dose change, 282 of 283 responders) was 99.6%, the “pooled mean SALT score” value (subjects with AA; 12 mg BID in OLE, placebo in the earlier studies) was 43.0 and the “pooled mean SALT score” value (subjects with AA; 52 weeks, 8 mg BID in OLE, 8 mg of deuruxolitinib in the earlier studies) was 25.6. The “pooled mean SALT score” value (subjects with AA; 52 weeks, 8 mg BID or 12 mg BID in OLE, dosed with deuruxolitinib in the earlier studies) was 31.7, the “pooled mean SALT score” value (subjects with AA; 52 weeks, 8 mg BID or 12 mg BID in OLE, placebo in the earlier studies) was 43.6 and the “pooled mean SALT score” value (subjects with AA; 52 weeks, 12 mg BID in OLE, 12 mg of deuruxolitinib in the earlier studies) was 27.7. For the same molecule, the “subjects achieving SALT ≤20” value (subjects with AA; 80 subjects on 8 mg twice daily for 76 weeks (24 weeks Phase III + 52 weeks open label extension)) was “approximately 74%”, the “proportion of participants achieving SALT ≤20” value (subjects with AA; OLE at Week 68, any dose (including switched doses), listed as deuruxolitinib) was 62.6% and 63% and the “proportion of participants achieving SALT ≤20 (FIG. 13A)” value (subjects with AA; Week 68, 8 mg BID) was > 80%. For the same molecule, the “patients achieving SALT 10” value (subjects with AA; Week 68, 8 mg BID/8 mg BID group, As observed, 179/256) was 69.9%, the “patients achieving SALT 10” value (subjects with AA; Week 68, 8 mg BID/8 mg BID group, LOCF, 213/521) was 40.9% and the “proportion of participants achieving SALT ≤20” value (subjects with AA; Week 68, 8 mg BID, As Observed (AO), listed as deuruxolitinib) was 76.6% and 77%. The “proportion of participants achieving SALT ≤20” value (subjects with AA; Week 68, 8 mg BID, LOCF) was 48.8%, the “proportion of participants achieving SALT ≤20” value (subjects with AA; Week 68, 12 mg BID, As Observed (AO), listed as deuruxolitinib) was 66.7% and 67% and the “proportion of participants achieving SALT ≤20” value (subjects with AA; Week 68, 12 mg BID, LOCF) was 60.9%. For the same molecule, the “patients achieving SALT 10” value (subjects with AA; Week 68, placebo/8 mg BID group, As observed, 39/59) was 66.1%, the “patients achieving SALT 10” value (subjects with AA; Week 68, placebo/8 mg BID group, LOCF, 41/122) was 33.6% and the “proportion of participants achieving SALT ≤20” value (subjects with AA; established in the Qualifying Studies, any dose) was 34.9%. For the same molecule, the “Mean SALT score” value (subjects with AA; out to 68 weeks, any dose in Qualifying Study and OLE, n=836, baseline 86.8 (n=984)) was 26.8, the “percentage of subjects with a SALT score of ≤20” value (“percentage of subjects” below) (subjects with AA; 8 mg twice per day in the OLE, listed as deuruxolitinib) was 63.6% and 64% and the “percentage of subjects” value (subjects with AA; 12 mg twice per day in the OLE, listed as deuruxolitinib) was 62.1% and 62%. For the same molecule, the “percentage of subjects” value (subjects with AA; any dose in the OLE (including switched doses), listed as deuruxolitinib) was 57.1% and 57%.
